How the values were obtained:
[1] = Acute toxicity; conditions: mouse, in vivo, ip; mice, intraperitoneal; read-out: Toxicity LD 50
Protocol: Groups of 5-10 female NMRI mice are given the compounds intraperitoneally. The LD 50 is determined as the dose after which 50% of the treated animals die.

[2] = test system: orientation hypermotility; assay: Sedative action: decrease in orientation hypermotility of mice; type: in vivo, female NMRI mice; conditions: for ED50: Mus musculus, 0.5 h, mice, oral, 30 min after administration, measured for 30 min, read-out: Sedative action ED 50%; for Sedative action R.A. (relative activity): clozapine = 1.00; for sedative-hypnotic effects (in words): compared with clozapine and perlapine
Protocol: 4-8 groups of 3 female NMRI mice are given the compound orally. The orientation hypermotility induced by a new environment is determined photoelectrically, 30 minutes after administration of the compound, for a period of 30 minutes.
The ED50% is the dose which produces a decrease in orientation hypermotility by 50%, compared to control animals treated with placebo.

[3] = test system: death from physostigmine; assay: Anticholinergic action: protection against death from physostigmine (antiphysostigmine test); type: in vivo, female NMRI mice; conditions: Mus musculus; mice, oral, 30 min before physostigmine 0.825 mg/kg s.c.; read-out: Anticholinergic action ED 50%
Protocol: 4. Anticholinergic action
Groups of 10 female NMRI mice are given physostigmine subcutaneously, at a lethal dose (0.825 mg/kg). The test substances are administered orally 30 minutes before the administration of physostigmine.
The ED 50% is determined as the dose of compound which protects 50% of the animals against death from physostigmine.

[4] = test system: tryptamine-induced clonic front paw movements; assay: Antitryptamine action: inhibition of tryptamine-induced front paw movements; type: in vivo, rats; conditions: for ED50: Rattus norvegicus, ip, rats, intraperitoneal, 30 min before tryptamine.HCl 16 mg/kg i.v., read-out: Antitryptamine action ED 50%; for Antitryptamine action R.A. (relative activity): clozapine = 1.00
Protocol: 3. Antitryptamine action Tryptamine.HCl (16 mg/kg administered intravenously) regularly causes the following symptoms in rats: clonic front paw movements, back-arching and retropulsion, as well as mandibular movements (Tedeschi et al., J. Pharmacol. Exp. Ther. 126 (1959), 223). The test substances are administered intraperitoneally 30 minutes before the tryptamine. […] The mean inhibitory dose (ED 50%) is determined, by means of Probit analysis, as the dose which prevents the symptom in half the animals.

[5] = test system: tonic extensor reflex on the rabbit gastrocnemius; assay: Muscle-relaxing action: tonic extensor reflex on the rabbit gastrocnemius; type: in vivo; conditions: for Muscle relaxation R.A. (relative activity): clozapine = 1.00; for muscle-relaxing properties (in words): rabbit, in vivo
Description: 2. Muscle-relaxing action The measurement is based on quantifying the tonic extensor reflex on the rabbit gastrocnemius (Teschendorf et al., Arch. Pharmacol. exp. Path. 266 (1970), 462). The rabbit is fixed in a special apparatus which permits bending the paw at the talocalcanean joint in a defined and reproducible manner. As a result of this bending, a tonic extensor reflex is triggered in the […]. The electrical activity of the muscle during contraction is registered and the individual pulses are counted. The extension (duration 5 s) is repeated at intervals of one minute. After a constant number of pulses has been reached (constituting the control value), the test substance is administered intravenously. The number of pulses after administration is related to the previous value. For each dose investigated, 4-6 animals are used. The ED 50% is the dose which reduces the muscle activity to half, based on the initial value.

| SMILES | LD50 [1] [mg/kg] | ED50 [2] [mg/kg] | Sedative action R.A. (relative activity) [2] | ED50 [3] [mg/kg] | ED50 [4] [mg/kg] | Antitryptamine action R.A. (relative activity) [4] | Muscle relaxation R.A. (relative activity) [5] | sedative-hypnotic effects (in words) [2] | muscle-relaxing properties (in words) [5] | antimonaminergic action, tryptamine antagonism (in words) ([4]; compared with reference substances) |
| --- | --- | --- | --- | --- | --- | --- | --- | --- | --- | --- |
| CCN1CCN(C2=Cc3ccccc3C(=CC#N)c3ccccc32)CC1 (mixture of isomers) [Example 5, cis,trans-5-Cyanomethylene-10-(4-ethyl-piperazin-1-yl)-dibenzo[a,d]-cycloheptene] | 287 | 1.38 | 3.43 | > 21.5 | 18.6 | 0.27 | 3.54 | – | – | – |
| N#CC=C1c2ccccc2C=C(N2CCN(CCO)CC2)c2ccccc21 (mixture of isomers) [Example 7, cis,trans-5-Cyanomethylene-10-(N-β-hydroxyethyl-piperazin-1-yl)-dibenzo[a,d]-cycloheptene.1/2 H2 O] | > 100 | 0.97 | 4.89 | > 21.5 | – | – | 3.54 | – | – | – |
| C[N+]1([O-])CCN(C2=Cc3ccccc3C(=CC#N)c3ccccc32)CC1 (mixture of isomers) [Example 12, cis,trans-5-Cyanomethylene-10-(4-methyl-4-oxy-piperazin-1-yl)-dibenzo[a,d]-cycloheptene.21/2 H2 O] | > 100 | 1.4 | 3.39 | > 21.5 | 12.5 | 0.40 | 0.46 | – | – | – |
| CN1CCN(C2=Nc3cc(Cl)ccc3Nc3ccccc32)CC1 [Clozapine, reference compound] | – | – | 1.00 | 14.1 | 5 | 1.00 | – | – | – | – |
| CN1CCN(C2=Cc3ccccc3C(=CC#N)c3ccccc32)CC1 [Example 1, cis- and trans-5-Cyanomethylene-10-(4-methyl-piperazin-1-yl)-dibenzo[a,d]-cycloheptene] | 324 | 0.96 | 4.94 | > 10 | – | – | 7.19 | – | – | – |
| CN1CCN(C2=Cc3ccccc3/C(=C/C#N)c3ccccc32)CC1 [Example 1a] | – | 0.8 | 5.92 | > 10 | 8.6 | 0.58 | 54.12 | particularly pronounced | particularly pronounced | – |
| CN1CCN(C2=Cc3cc(Cl)ccc3C(=CC#N)c3ccccc32)CC1 [Example 4, cis- and trans-2-Chloro-5-cyanomethylene-10-(4-methylpiperazin-1-yl)-dibenzo[a,d]-cycloheptene] | – | 2 | 2.37 | > 21.5 | – | – | 10.00 | – | – | – |
| CN1CCN(C2=Cc3cc(Cl)ccc3/C(=C/C#N)c3ccccc32)CC1 [Example 4a, cis-5-cyanomethylene-2-chloro-10-(4-methyl-piperazin-1-yl)-dibenzo[a,d]-cycloheptene] | – | 0.44 | 10.77 | > 21.5 | 0.7 | 7.14 | 10.00 | particularly pronounced | particularly pronounced | markedly more pronounced |
| CCN1CCN(C2=Cc3ccccc3/C(=C/C#N)c3ccccc32)CC1 [Example 5a, cis-5-cyanomethylene-10-(4-ethyl-piperazin-1-yl)-dibenzo[a,d]-cycloheptene] | > 100 | 1 | 4.74 | > 21.5 | 11.2 | 0.45 | 4.60 | – | – | – |
| CN1CCN(C2=Nc3ccccc3Cc3ccccc32)CC1 [Perlapine, reference compound] | – | – | – | > 21.5 | 4.1 | 1.22 | – | – | – | – |

From patent US4447610A, “10-Substituted 5-cyanomethylene-dibenzo[A,B]-cycloheptenes, their preparations, and therapeutic agents containing these compounds” (BASF Aktiengesellschaft, priority 1980, dated 1984)
